In patent US20240269138A1, “MMP13 AS A THERAPEUTIC TARGET FOR ALLERGIC INFLAMMATORY DISEASES” (The General Hospital Corporation, priority 2021, published 2024):

Assays:
MMP13 = MMP13 (Homo sapiens, UniProt P45452); settings: fill the S1′ pocket of MMP13 but cannot fit those of other MMPs; cited from earlier work
[1] = test system: HDM-induced allergic airway inflammation; experiment: HDM-induced allergic airway inflammation (mouse model of asthma), intraperitoneal inhibitor; assay type: in vivo, C57BL/6 mice; settings: for total BAL leukocyte numbers / histologically detectable changes in the lung tissue sections: 50 mg/kg intraperitoneally on days 19 and 20; for total BAL leukocyte numbers: BAL on day 21, Diff-Quik; for histologically detectable changes in the lung tissue sections: lungs on day 21, H&E and PAS; for effectiveness compared with dexamethasone: inhibitor 50 mg/kg vs dexamethasone 1 mg/kg, intraperitoneally, days 19 and 20; for inflammation in a mouse model of asthma (overall): systemic (intraperitoneal) administration
Method: C57BL/6 mice were subjected to intranasal instillation of control PBS or HDM as in FIGS. 5A-5D. Vehicle (DMSO), dexamethasone (1 mg/kg), and the MMP13 inhibitors CL82198 (MMP13i Inh1; 50 mg/kg) and DB04760 (CAS 544678-85-5; MMP13i Inh2; 50 mg/kg) were administered intraperitoneally (n=3, 3, 4, and 2 per group, respectively) on days 19 and 20. BAL and lungs of PBS- and HDM-challenged mice were prepared for analysis as in FIGS. 5A-5D. (FIG. 6A and FIG. 6B) BAL cells were analyzed by Diff-Quik staining (FIG. 6A). The numbers of total BAL cells and the indicated types of BAL cells were determined from Diff-Quik-stained cell images and are shown as means±SEM (FIG. 6B). *, P<0.05 (two-tailed unpaired Student's t test). (FIG. 6C and FIG. 6D) Lung sections were analyzed by H&E staining (FIG. 6C) and PAS staining (FIG. 6D). Mice were subjected to intranasal instillation of HDM (D. farinae) extract (XPB81D3A25; Stallergenes Greer) in phosphate-buffered saline (PBS) on days 0, 2, 5, 7, 9, 12, 14, 16 and 19. The amounts of HDM extract administered range between 1 μg and 10 μg per animal; the administered amount for each batch was determined by seeking a condition for BAL eosinophils of 2-5×10^5 cells. PBS was instilled as a control. Dexamethasone and MMP13 inhibitors were injected intraperitoneally (1 mg/kg and 50 mg/kg, respectively) on days 19 and 20. BAL and lungs of PBS- and HDM-challenged mice were prepared on day 21 for analysis. Mouse skin and lung tissues were fixed with formalin and embedded in paraffin. Tissue sections were analyzed by hematoxylin and eosin (H&E) and Periodic acid-Schiff (PAS) staining or by immunofluorescence analysis using primary antibodies in conjunction with Alexa Fluor 594- or fluorescein isothiocyanate-conjugated secondary antibodies (Thermo Fisher Scientific) and Hoechst 33342 (Sigma). Primary antibodies specific to the following antigens were used in immunofluorescence analysis after 1:100 to 1:200 dilution: CD3 (SP7; Abcam), MBP (2000-124; Mayo Clinic), and MMP13 (ab39012; Abcam). Cytospins of BAL cells were analyzed by Diff-Quik staining. Data values are expressed as means±SEM. P values were obtained with the unpaired two-tailed Student t test with Welch's correction.

[2] = test system: OVA-induced allergic dermatitis; experiment: OVA-induced allergic dermatitis (mouse model of atopic dermatitis), topical inhibitor; assay type: in vivo, C57BL/6 mice; settings: for inflammation in a mouse model of atopic dermatitis (overall): topical administration; for OVA-induced dermal thickening (edema formation) / OVA-induced epidermal thickening / OVA-induced T cell infiltration (CD3+ T cell density) / OVA-induced eosinophil infiltration (MBP+ eosinophil density): topical, 125 μl of 50 mM solution per cm^2 concurrently with OVA challenge, skin on day 21; for OVA-induced dermal thickening (edema formation) / OVA-induced epidermal thickening: H&E; for OVA-induced T cell infiltration (CD3+ T cell density) / OVA-induced eosinophil infiltration (MBP+ eosinophil density): immunostaining
Method: C57BL/6 mice were sensitized to OVA and challenged with control SAL or OVA as in FIGS. 1A-1G. Vehicle (water), the p38α inhibitor SCIO469 (p38αi), and the MMP13 inhibitor DB04760 (CAS 544678-85-5; MMP13i) were administered topically to the challenged skin site (125 μl of 50 mM solution per cm^2; n=10 per group) concurrently with SAL or OVA. SAL- and OVA-challenged skin was prepared for analysis as in FIGS. 1A-1G. (FIGS. 4A-4C) Skin sections were analyzed by H&E staining (FIG. 4A). Epidermal and dermal thickness (FIG. 4B and FIG. 4C, respectively) was determined from H&E-stained skin images and are shown as means±SEM. *, P<0.05; **, P<0.01 (two-tailed unpaired Student's t test). (FIGS. 4D-4G) Skin sections were analyzed by immunostaining/counterstaining for the indicated molecules (FIG. 4D and FIG. 4F). Solid and dotted line, epidermal margins and the epidermal-dermal boundary, respectively. CD3^+ T cell and MBP^+ eosinophil density (FIG. 4E and FIG. 4G, respectively) was determined on the basis of fluorescence signal-bearing cell numbers per image field and is shown as means SEM. **, P<0.01; ***, P<0.001 (two-tailed unpaired Student's t test). For allergen sensitization, OVA (Sigma) and alum adjuvant (Imject; Thermo Fisher Scientific) were combined in saline (0.9% sodium chloride; SAL) to constitute an inoculum (1 mg/ml and 100 mg/ml, respectively) and injected intraperitoneally into mice (200 μl per animal) on day 0 and 7. To elicit dermatitis in OVA-sensitized mice, shaved dorsal skin was subjected to 15 strokes of tape stripping (Tegaderm; 3M) and then challenged with OVA on days 14, 16 and 19. For this epicutaneous challenge, 100 μl of OVA (1 mg/ml in SAL) was applied to cotton gauze (1 cm×1 cm) placed on tape-stripped skin; 100 μl of SAL was applied as a control. For topical administration of p38α and MMP13 inhibitors, 125 μl of inhibitor solution (50 mM) was applied to skin sites concurrently with SAL or OVA. Challenged skin was sampled on day 21 for analysis. Mouse skin and lung tissues were fixed with formalin and embedded in paraffin. Tissue sections were analyzed by hematoxylin and eosin (H&E) and Periodic acid-Schiff (PAS) staining or by immunofluorescence analysis using primary antibodies in conjunction with Alexa Fluor 594- or fluorescein isothiocyanate-conjugated secondary antibodies (Thermo Fisher Scientific) and Hoechst 33342 (Sigma). Primary antibodies specific to the following antigens were used in immunofluorescence analysis after 1:100 to 1:200 dilution: CD3 (SP7; Abcam), MBP (2000-124; Mayo Clinic), and MMP13 (ab39012; Abcam). Cytospins of BAL cells were analyzed by Diff-Quik staining. Data values are expressed as means±SEM. P values were obtained with the unpaired two-tailed Student t test with Welch's correction.

| SMILES | selectivity for MMP13 over other MMPs (MMP13) | total BAL leukocyte numbers [1] | histologically detectable changes in the lung tissue sections [1] | effectiveness compared with dexamethasone [1] | inflammation in a mouse model of asthma (overall) [1] | inflammation in a mouse model of atopic dermatitis (overall) [2] | OVA-induced dermal thickening (edema formation) [2] | OVA-induced epidermal thickening [2] | OVA-induced T cell infiltration (CD3+ T cell density) [2] | OVA-induced eosinophil infiltration (MBP+ eosinophil density) [2] |
| --- | --- | --- | --- | --- | --- | --- | --- | --- | --- | --- |
| O=C(NCCCCN1CCOCC1)c1cc2ccccc2o1 [CL82198] | almost exclusively selective for MMP13 | substantially reduced | prevented | superior to that of dexamethasone | suppresses inflammation |  |  |  |  |  |
| Cc1cc(CNC(=O)c2cc(C(=O)NCc3ccc(F)c(C)c3)ncn2)ccc1F [DB04760] |  | substantially reduced | prevented | superior to that of dexamethasone | suppresses inflammation | suppresses inflammation | trend of decrease | significantly reduced | significantly reduced | trend of decrease |
| C[C@@H]1CN(Cc2ccc(F)cc2)[C@@H](C)CN1C(=O)c1cc2c(C(=O)C(=O)N(C)C)cn(C)c2cc1Cl [SCIO469] |  |  |  |  |  | suppresses inflammation | significant decrease | significant decrease | significant decrease | significant decrease |
